According to US8168647B2, “Vinblastine derivatives, their preparation, use and pharmaceutical compositions comprising the said derivatives” (Shanghai Institute of Materia Medica Chinese Academy of …, priority 2007, dated 2012):

Assays:
[1] = test system: human non-small cell lung cancer cell line A-549; assay: In vitro cytotoxicity assay, Sulforhodamine B (SRB), A-549; assay type: cell-based; conditions: Homo sapiens, A549, 72 h, read-out: A549 (IC50, nM)
[2] = test system: human cervical carcinoma cell line Hela; assay: In vitro cytotoxicity assay, Sulforhodamine B (SRB), Hela; assay type: cell-based; conditions: Homo sapiens, HeLa, 72 h, read-out: Hela (IC50, nM)

| SMILES | IC50 [1] [nM] | IC50 [2] [nM] |
| --- | --- | --- |
| CCC1=C[C@@H]2CN(CCc3c([nH]c4ccccc34)[C@@](C(=O)OC)(c3cc4c(cc3OC)N(C)[C@H]3C(O)(CNC(C)=O)[C@H](OC(C)=O)[C@]5(CC)C=CCN6CC[C@]43[C@@H]65)C2)C1 (stereo partly drawn) [BM25] | > 1000 | 477 |
| CCC1=C[C@@H]2CN(CCc3c([nH]c4ccccc34)[C@@](C(=O)OC)(c3cc4c(cc3OC)N(C)[C@H]3C(O)(CNC(=O)C(F)(F)F)[C@H](OC(C)=O)[C@]5(CC)C=CCN6CC[C@]43[C@@H]65)C2)C1 (stereo partly drawn) [BM26] | 56.3 | 61.6 |
| CCC1=C[C@@H]2CN(CCc3c([nH]c4ccccc34)[C@@](C(=O)OC)(c3cc4c(cc3OC)N(C)[C@H]3C(O)(CNC(=O)C(C)C)[C@H](OC(C)=O)[C@]5(CC)C=CCN6CC[C@]43[C@@H]65)C2)C1 (stereo partly drawn) [BM28] | 101 | 75.8 |
| CCCC(=O)NCC1(O)[C@H](OC(C)=O)[C@]2(CC)C=CCN3CC[C@@]4(c5cc([C@@]6(C(=O)OC)C[C@@H]7C=C(CC)CN(CCc8c6[nH]c6ccccc86)C7)c(OC)cc5N(C)[C@@H]14)[C@@H]32 (stereo partly drawn) [BM29] | 348 | 126 |
| CCC1=C[C@@H]2CN(CCc3c([nH]c4ccccc34)[C@@](C(=O)OC)(c3cc4c(cc3OC)N(C)[C@H]3C(O)(CNC(=O)CC(C)C)[C@H](OC(C)=O)[C@]5(CC)C=CCN6CC[C@]43[C@@H]65)C2)C1 (stereo partly drawn) [BM30] | > 1000 | > 1000 |
| CCC1=C[C@@H]2CN(CCc3c([nH]c4ccccc34)[C@@](C(=O)OC)(c3cc4c(cc3OC)N(C)[C@H]3C(O)(CNC(=O)CC(C)(C)C)[C@H](OC(C)=O)[C@]5(CC)C=CCN6CC[C@]43[C@@H]65)C2)C1 (stereo partly drawn) [BM31] | 395 | 245 |
| C=C(C)C(=O)NCC1(O)[C@H](OC(C)=O)[C@]2(CC)C=CCN3CC[C@@]4(c5cc([C@@]6(C(=O)OC)C[C@@H]7C=C(CC)CN(CCc8c6[nH]c6ccccc86)C7)c(OC)cc5N(C)[C@@H]14)[C@@H]32 (stereo partly drawn) [BM32] | 17.9 | 12.5 |
| CCC1=C[C@@H]2CN(CCc3c([nH]c4ccccc34)[C@@](C(=O)OC)(c3cc4c(cc3OC)N(C)[C@H]3C(O)(CNC(=O)C(C)(C)C)[C@H](OC(C)=O)[C@]5(CC)C=CCN6CC[C@]43[C@@H]65)C2)C1 (stereo partly drawn) [BM34] | 338 | 73.5 |
| CCC1=C[C@@H]2CN(CCc3c([nH]c4ccccc34)[C@@](C(=O)OC)(c3cc4c(cc3OC)N(C)[C@H]3C(O)(CNC(=O)C5CCC5)[C@H](OC(C)=O)[C@]5(CC)C=CCN6CC[C@]43[C@@H]65)C2)C1 (stereo partly drawn) [BM35] | 117 | 45.2 |
| CCC1=C[C@@H]2CN(CCc3c([nH]c4ccccc34)[C@@](C(=O)OC)(c3cc4c(cc3OC)N(C)[C@H]3C(O)(CNC(=O)c5ccccc5)[C@H](OC(C)=O)[C@]5(CC)C=CCN6CC[C@]43[C@@H]65)C2)C1 (stereo partly drawn) [BM36] | 87.4 | 16.4 |
| CCC1=C[C@@H]2CN(CCc3c([nH]c4ccccc34)[C@@](C(=O)OC)(c3cc4c(cc3OC)N(C)[C@H]3C(O)(CNC(=O)c5ccc(C)cc5)[C@H](OC(C)=O)[C@]5(CC)C=CCN6CC[C@]43[C@@H]65)C2)C1 (stereo partly drawn) [BM37] | 20.7 | 16 |
| CCC1=C[C@@H]2CN(CCc3c([nH]c4ccccc34)[C@@](C(=O)OC)(c3cc4c(cc3OC)N(C)[C@H]3C(O)(CNC(=O)c5ccc(F)cc5)[C@H](OC(C)=O)[C@]5(CC)C=CCN6CC[C@]43C65)C2)C1 (stereo partly drawn) [BM38] | 46.5 | 20.4 |
| CCC1=C[C@@H]2CN(CCc3c([nH]c4ccccc34)[C@@](C(=O)OC)(c3cc4c(cc3OC)N(C)[C@H]3C(O)(CNC(=O)c5cccc(Cl)c5)[C@H](OC(C)=O)[C@]5(CC)C=CCN6CC[C@]43C65)C2)C1 (stereo partly drawn) [BM40] | 103 | 42 |
| CCC1=C[C@@H]2CN(CCc3c([nH]c4ccccc34)[C@@](C(=O)OC)(c3cc4c(cc3OC)N(C)[C@H]3C(O)(CNC(=O)c5ccncc5)[C@H](OC(C)=O)[C@]5(CC)C=CCN6CC[C@]43C65)C2)C1 (stereo partly drawn) [BM42] | 78.3 | 22.4 |
| CCC1=C[C@@H]2CN(CCc3c([nH]c4ccccc34)[C@@](C(=O)OC)(c3cc4c(cc3OC)N(C)[C@H]3C(O)(CNC(=O)c5ccc(OC)cc5)[C@H](OC(C)=O)[C@]5(CC)C=CCN6CC[C@]43C65)C2)C1 (stereo partly drawn) [BM45] | 578 | 135 |
| CCC1=C[C@@H]2CN(CCc3c([nH]c4ccccc34)[C@@](C(=O)OC)(c3cc4c(cc3OC)N(C)[C@H]3C(O)(CNC(=O)Cc5ccccc5)[C@H](OC(C)=O)[C@]5(CC)C=CCN6CC[C@]43C65)C2)C1 (stereo partly drawn) [BM46] | 174 | 22.9 |
| CCC1=C[C@@H]2CN(CCc3c([nH]c4ccccc34)[C@@](C(=O)OC)(c3cc4c(cc3OC)N(C)[C@H]3C(O)(CNC(=O)OC(C)C)[C@H](OC(C)=O)[C@]5(CC)C=CCN6CC[C@]43[C@@H]65)C2)C1 (stereo partly drawn) [BM50] | 162 | 26.2 |
| CCC1=C[C@@H]2CN(CCc3c([nH]c4ccccc34)[C@@](C(=O)OC)(c3cc4c(cc3OC)N(C)[C@H]3C(O)(CNC(=O)OC(C)(C)C)[C@H](OC(C)=O)[C@]5(CC)C=CCN6CC[C@]43[C@@H]65)C2)C1 (stereo partly drawn) [BM51] | 505 | 172 |

| SMILES | IC50 [1] [nM] | IC50 [2] [nM] |
| --- | --- | --- |
| CCC1=C[C@@H]2CN(CCc3c([nH]c4ccccc34)[C@@](C(=O)OC)(c3cc4c(cc3OC)N(C)[C@H]3C(O)(CNC(=O)OCCOC)[C@H](OC(C)=O)[C@]5(CC)C=CCN6CC[C@]43[C@@H]65)C2)C1 (stereo partly drawn) [BM54] | 632 | 425 |
| CCCCCOC(=O)NCC1(O)[C@H](OC(C)=O)[C@]2(CC)C=CCN3CC[C@@]4(c5cc([C@@]6(C(=O)OC)C[C@@H]7C=C(CC)CN(CCc8c6[nH]c6ccccc86)C7)c(OC)cc5N(C)[C@@H]14)[C@@H]32 (stereo partly drawn) [BM56] | 332 | 78.4 |
| CCC1=C[C@@H]2CN(CCc3c([nH]c4ccccc34)[C@@](C(=O)OC)(c3cc4c(cc3OC)N(C)[C@H]3C(O)(CNC(=O)OC5CCC5)[C@H](OC(C)=O)[C@]5(CC)C=CCN6CC[C@]43[C@@H]65)C2)C1 (stereo partly drawn) [BM58] | 97.3 | 62.9 |
| CCC1=C[C@@H]2CN(CCc3c([nH]c4ccccc34)[C@@](C(=O)OC)(c3cc4c(cc3OC)N(C)[C@H]3C(O)(CNC(=O)OC5CCCC5)[C@H](OC(C)=O)[C@]5(CC)C=CCN6CC[C@]43[C@@H]65)C2)C1 (stereo partly drawn) [BM59] | 170 | 79.8 |
| CCC1=C[C@@H]2CN(CCc3c([nH]c4ccccc34)[C@@](C(=O)OC)(c3cc4c(cc3OC)N(C)[C@H]3C(O)(CNC(=O)OC5CCCCC5)[C@H](OC(C)=O)[C@]5(CC)C=CCN6CC[C@]43[C@@H]65)C2)C1 (stereo partly drawn) [BM60] | 226 | 75.9 |
| CCC1=C[C@@H]2CN(CCc3c([nH]c4ccccc34)[C@@](C(=O)OC)(c3cc4c(cc3OC)N(C)[C@H]3C(O)(CNC(=O)Oc5ccccc5)[C@H](OC(C)=O)[C@]5(CC)C=CCN6CC[C@]43[C@@H]65)C2)C1 (stereo partly drawn) [BM61] | 978 | 683 |
| CCC1=C[C@@H]2CN(CCc3c([nH]c4ccccc34)[C@@](C(=O)OC)(c3cc4c(cc3OC)N(C)[C@H]3C(O)(CNC(=O)Oc5ccc(F)cc5)[C@H](OC(C)=O)[C@]5(CC)C=CCN6CC[C@]43[C@@H]65)C2)C1 (stereo partly drawn) [BM62] | > 1000 | 377 |
| CCC1=C[C@@H]2CN(CCc3c([nH]c4ccccc34)[C@@](C(=O)OC)(c3cc4c(cc3OC)N(C)[C@H]3C(O)(CNC(=O)Oc5ccc(F)c(F)c5)[C@H](OC(C)=O)[C@]5(CC)C=CCN6CC[C@]43[C@@H]65)C2)C1 (stereo partly drawn) [BM63] | > 1000 | 264 |
| CCC1=C[C@@H]2CN(CCc3c([nH]c4ccccc34)[C@@](C(=O)OC)(c3cc4c(cc3OC)N(C)[C@H]3C(O)(CNC(=O)Oc5ccccc5OC)[C@H](OC(C)=O)[C@]5(CC)C=CCN6CC[C@]43[C@@H]65)C2)C1 (stereo partly drawn) [BM64] | 951 | 227 |
| CCC1=C[C@@H]2CN(CCc3c([nH]c4ccccc34)[C@@](C(=O)OC)(c3cc4c(cc3OC)N(C)[C@H]3C(O)(CNC(=O)Oc5ccc(OC)cc5)[C@H](OC(C)=O)[C@]5(CC)C=CCN6CC[C@]43[C@@H]65)C2)C1 (stereo partly drawn) [BM65] | 344 | 159 |
| CCC1=C[C@@H]2CN(CCc3c([nH]c4ccccc34)[C@@](C(=O)OC)(c3cc4c(cc3OC)N(C)[C@H]3C(O)(CNC(=O)OCc5ccccc5)[C@H](OC(C)=O)[C@]5(CC)C=CCN6CC[C@]43[C@@H]65)C2)C1 (stereo partly drawn) [BM66] | 261 | 87.5 |
| CCC1=C[C@@H]2CN(CCc3c([nH]c4ccccc34)[C@@](C(=O)OC)(c3cc4c(cc3OC)N(C)[C@H]3C(O)(CNC(=O)OCc5ccccc5OC)[C@H](OC(C)=O)[C@]5(CC)C=CCN6CC[C@]43[C@@H]65)C2)C1 (stereo partly drawn) [BM67] | 480 | 176 |
| CCC1=C[C@@H]2CN(CCc3c([nH]c4ccccc34)[C@@](C(=O)OC)(c3cc4c(cc3OC)N(C)[C@H]3C(O)(CNC(=O)OCc5ccc(OC)cc5)[C@H](OC(C)=O)[C@]5(CC)C=CCN6CC[C@]43[C@@H]65)C2)C1 (stereo partly drawn) [BM68] | 150 | 87.6 |
| CCC1=C[C@@H]2CN(CCc3c([nH]c4ccccc34)[C@@](C(=O)OC)(c3cc4c(cc3OC)N(C)[C@H]3C(O)(CNC(=O)OCc5ccc6c(c5)OCO6)[C@H](OC(C)=O)[C@]5(CC)C=CCN6CC[C@]43[C@@H]65)C2)C1 (stereo partly drawn) [BM69] | 230 | 127 |
| CCC1=C[C@@H]2CN(CCc3c([nH]c4ccccc34)[C@@](C(=O)OC)(c3cc4c(cc3OC)N(C)[C@H]3C(O)(CNC(=O)OCc5cccc(Cl)c5)[C@H](OC(C)=O)[C@]5(CC)C=CCN6CC[C@]43[C@@H]65)C2)C1 (stereo partly drawn) [BM70] | > 1000 | > 1000 |
| CCC1=C[C@@H]2CN(CCc3c([nH]c4ccccc34)[C@@](C(=O)OC)(c3cc4c(cc3OC)N(C)[C@H]3C(O)(CNC(=O)OCc5ccc(Cl)cc5)[C@H](OC(C)=O)[C@]5(CC)C=CCN6CC[C@]43[C@@H]65)C2)C1 (stereo partly drawn) [BM71] | 510 | 347 |
| CCC1=C[C@@H]2CN(CCc3c([nH]c4ccccc34)[C@@](C(=O)OC)(c3cc4c(cc3OC)N(C)[C@H]3C(O)(CNC(=O)OCc5ccccc5[N+](=O)[O-])[C@H](OC(C)=O)[C@]5(CC)C=CCN6CC[C@]43[C@@H]65)C2)C1 (stereo partly drawn) [BM72] | 830 | 561 |
| CCC1=C[C@@H]2CN(CCc3c([nH]c4ccccc34)[C@@](C(=O)OC)(c3cc4c(cc3OC)N(C)[C@H]3C(O)(CNC(=O)OCc5ccc([N+](=O)[O-])cc5)[C@H](OC(C)=O)[C@]5(CC)C=CCN6CC[C@]43[C@@H]65)C2)C1 (stereo partly drawn) [BM73] | 780 | 432 |
